pKi: −log10 of the molar value. Some results are limits rather than exact numbers.

One assay deals with T1, 5-HT 1D beta receptors (Homo sapiens, UniProt P28222).
T1 construct: expressed in transfected cells; host or cells: CHO cells
T1 sequence (P28222 whole entry): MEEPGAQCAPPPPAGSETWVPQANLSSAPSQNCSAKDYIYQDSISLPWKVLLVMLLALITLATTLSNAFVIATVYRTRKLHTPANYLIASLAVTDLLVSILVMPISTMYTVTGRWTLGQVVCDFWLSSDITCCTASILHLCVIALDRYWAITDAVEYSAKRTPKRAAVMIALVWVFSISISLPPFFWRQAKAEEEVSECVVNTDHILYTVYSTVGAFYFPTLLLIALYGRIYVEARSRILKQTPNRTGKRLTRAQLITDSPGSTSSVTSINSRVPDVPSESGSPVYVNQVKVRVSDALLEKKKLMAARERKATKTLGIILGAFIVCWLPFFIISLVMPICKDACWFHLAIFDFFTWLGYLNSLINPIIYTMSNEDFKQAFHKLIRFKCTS
Kind of assay: 5-HT 1D beta binding ([3H]-5-HT displacement, homogenised CHO cells).
Details: not given
As to the method: 5-HT 1D ALPHA AND 5-HT 1D BETA BINDING.
CHO cells expressing 5-HT 1D beta receptors (4×10^7 cells/ml) are homogenised in Tris buffer and stored in 1.5 ml aliquots.
0.4 ml of a cell suspension was incubated with [^3 H]-5-HT (4 nM) in Tris Mg HCl buffer (pH 7.7) and test drug, at 37° C. for 45 minutes. Each test drug was tested at 10 concentrations (0.01 mM to 0.3 nM final concentration), with non-specific binding defined using 0.01 mM 5-HT. The total assay volume was 0.5 ml. Incubation was stopped by rapid filtration using a Packard Filtermate (filters pre-soaked in 0.3% polyethylenimine) and radioactivity measured by Topcount scintillation counting. The pKi values were calculated from the IC50 generally by an iterative leas squares curve fitting programme.
For `CCN1CCC2(CC1)COc1cc3c(cc12)N(C(=O)c1ccc(-c2ccc(-c4nnc(C)o4)cc2C)cc1)CC3` [Example 26, 1'-Ethyl-5-[2'-methyl-4'-(5-methyl-1,3,4-oxadiazol-2-yl)biphenyl-4-carbonyl]-2,3,6,7-tetrahydrospiro[furo[2,3-f]indole-3,4'-piperidine]], the negative logarithm of the Ki (pKi) was above 8.00.

Staying with this assay, now noted: CHO cells expressing 5-HT 1D beta receptors; [3H]-5-HT (4 nM); 37° C. for 45 minutes; pKi calculated from the IC50; read-out: pKi values at 5-HT 1D beta receptors (converted).
`COC(=O)c1ccc(C)c(-c2ccc(C(=O)N3CCc4cc5c(cc43)C3(CCN(C)CC3)CO5)cc2)c1` [Example 23, 5-(5'-Methoxycarbonyl-2'-methylbiphenyl-4-carbonyl)-1'-methyl-2,3,6,7-tetrahydrospiro[furo[2,3-f]indole-3,4'-piperidine]]: the Ki is below 10 nM.
The same measure, in the same setting: to `Cc1cc(-c2cnccn2)ccc1-c1ccc(C(=O)N2CCc3cc4c(cc32)C2(CCN(C)CC2)CO4)cc1` [Example 51, 1'-Methyl-5-(2'-methyl-4'-pyrazinylbiphenyl-4-carbonyl)-2,3,6,7-tetrahydrospiro[furo[2,3-f]indole-3,4'-piperidine]] belongs below 10 nM; to `Cc1cc(-c2ccc(-c3ccc(C(=O)N4CCc5cc6c(cc54)C4(CCN(C)CC4)CO6)cc3)c(C)c2)no1` [Example 45, 1'-Methyl-5-(2'-methyl-4'-(5-methylisoxazol-3-yl)biphenyl-4-carbonyl)-2,3,6,7-tetrahydrospiro[furo[2,3-f]indole-3,4'-piperidine]], below 10 nM.
In the case of `Cc1nc(-c2ccc(-c3ccc(C(=O)n4ccc5cc6c(cc54)C4(CCN(C)CC4)CO6)cc3)c(C)c2)no1` [Example 8, 2,3-Dihydro-1'-methyl-5-(2'-methyl-4'-(5-methyl-1,2,4-oxadiazol-3-yl)biphenyl-4-carbonyl)spiro[furo[2,3-f]indole-3,4'-piperidine)], the Ki was below 10 nM.
On the same count and under the same terms, to `Cc1cc(-c2cncn2C)ccc1-c1ccc(C(=O)N2CCc3cc4c(cc32)C2(CCN(C)CC2)CO4)cc1` [Example 54, 1'-Methyl-5-[2'-methyl-4'-(1-methylimidazol-5-yl)biphenyl-4-carbonyl]-2,3,6,7-tetrahydrospiro[furo[2,3-f]indole-3,4'-piperidine]] belongs below 10 nM.
The same measure, in the same setting: with `Cc1nnc(-c2ccc(-c3ccc(C(=O)N4CCc5cc6c(cc54)C4(CCN(C)CC4)CO6)cc3)c(C)c2)o1` [Example 5, 1'-Methyl-5-(2'-methyl-4'-(5-methyl-1,3,4-oxadiazol-2-yl)biphenyl-4-carbonyl)-2,3,6,7-tetrahydrospiro[furo[2,3-f]indole-3,4'-piperidine]] the figure was below 10 nM; with `CCOC(=O)Nc1ccc(-c2ccc(C(=O)N3CCc4cc5c(cc43)C3(CCN(CC)CC3)CO5)cc2)c(C)c1` [Example 66, 5-[4'-(Ethoxycarbonylamino)-2'-methylbiphenyl-4-carbonyl]-1'-ethyl-2,3,6,7-tetrahydrospiro[furo[2,3-f]indole-3,4'-piperidine]], below 10 nM.
Consider `Cc1nnc(-c2ccc(-c3ccc(C(=O)N4CCc5cc6c(cc54)C4(CCO6)CCN(C)CC4)cc3)c(C)c2)o1` [Example 40, 1'-Methyl-6-[2°-methyl-4'-(5-methyl-1,3,4-oxadiazol-2-yl)biphenyl-4-carbonyl]-2,3,7,8-tetrahydrospiro[4H-pyrano[2,3-f]indole-4,4'-piperidine]], for which the Ki was below 10 nM.
The same measure, in the same setting: with `Cc1cc(-c2noc(CO)n2)ccc1-c1ccc(C(=O)N2CCc3cc4c(cc32)C2(CCN(C)CC2)CO4)cc1` [Example 55, 5-[4'-(5-Hydroxymethyl-1,2,4-oxadiazol-3-yl)-2'-methylbiphenyl-4-carbonyl]-1'-methyl-2,3,6,7-tetrahydrospiro[furo[2,3-f]indole-3,4'-piperidine]] the figure was below 10 nM.
Consider `CCN1CCC2(CC1)COc1cc3c(cc12)N(C(=O)c1ccc(-c2ccc(-c4noc(C)n4)cc2C)cc1)CC3` [Example 4, 1'-Ethyl-5-(2'-methyl-4'-(5-methyl-1,2,4-oxadiazol-3-yl)biphenyl-4-carbonyl)-2,3,6,7-tetrahydrospiro[furo[2,3-f]indole-3,4'-piperidine]], for which the Ki was below 10 nM.
The same measure, in the same setting: to `Cc1nnc(-c2ccc(-c3ccc(C(=O)n4ccc5cc6c(cc54)C4(CCN(C)CC4)CO6)cc3)c(C)c2)o1` [Example 18, 2,3-Dihydro-1'-methyl-5-(2'-methyl-4'-(5-methyl-1,3,4-oxadiazol-2-yl)biphenyl-4-carbonyl)spiro[furo[2,3-f]indole-3,4'-piperidine]] belongs below 10 nM; to `Cc1cc(-c2noc(N(C)C)n2)ccc1-c1ccc(C(=O)N2CCc3cc4c(cc32)C2(CCN(C)CC2)CO4)cc1` [Example 6, 5-(4'-(5-Dimethylamino-1,2,4-oxadiazol-3-yl)-2'-methylbiphenyl-4-carbonyl)-1'-methyl-2,3,6,7-tetrahydrospiro[furo[2,3-f]indole-3,4'-piperidine]], below 10 nM; to `Cc1cc(-c2nccnn2)ccc1-c1ccc(C(=O)N2CCc3cc4c(cc32)C2(CCN(C)CC2)CO4)cc1` [Example 57, 1'-Methyl-5-[2'-methyl-4'-(1,2,4-triazin-3-yl)biphenyl-4-carbonyl]-2,3,6,7-tetrahydrospiro[furo[2,3-f]indole-3,4'-piperidine]], below 10 nM.
